In patent US9453014B2, “Cyclic amide derivatives as inhibitors of 11-β-hydroxysteroid dehydrogenase and uses thereof” (CONNEXIOS LIFE SCIENCES PVT. LTD., priority 2011, dated 2016):

Biological target: T1, human full length HSD11 β 1 (Homo sapiens, UniProt P28845)
T1 construct: transient expression of human full length HSD11 β 1 expression vector; host or cells: CHO cells (transient transfection)
Assay: In Vitro HSD11β1 Inhibition Assay
Assay type: cell-based
Details: CHO cells transiently expressing human HSD11β1; 200 nM cortisone+500 uM NADPH overnight; cortisone to cortisol by LC/MS-MS; read-out: 11βHSD1 (IC50)
Experimental: In Vitro HSD11β1 Inhibition Assay:
CHO cells were maintained in Dulbecco's modified Eagle's medium/nutrient mixture F-12 containing 5% fetal bovine serum (v/v) and 2 mM glutamine. Cells were cultured at 37° C. with 5% CO2. For transient expression of human full length HSD11 β 1 expression vector (OriGene Technologies), cells were seeded at a density of 2×10^5 cells/well in a 6-well plate. Transfection was done using Turbofectin8 reagent (OriGene Technologies), according to the protocol provided with the reagent. After 24 hours post-transfection, cells were trypsinized and pooled together before they were re-seeding to 96-well plate at a density of 40000 cells/well. 24 hours after re-seeding, cells were incubated with 200 nM cortisone+500 uM NADPH (or along with small molecule inhibitors) overnight. The enzymatic activity or inhibition of enzyme activity was measured by estimating the conversion of cortisone to cortisol by LC/MS-MS method. The IC50 in nM was calculated from an 8 point log scale of concentration versus inhibition.

T1 sequence (P28845 whole entry): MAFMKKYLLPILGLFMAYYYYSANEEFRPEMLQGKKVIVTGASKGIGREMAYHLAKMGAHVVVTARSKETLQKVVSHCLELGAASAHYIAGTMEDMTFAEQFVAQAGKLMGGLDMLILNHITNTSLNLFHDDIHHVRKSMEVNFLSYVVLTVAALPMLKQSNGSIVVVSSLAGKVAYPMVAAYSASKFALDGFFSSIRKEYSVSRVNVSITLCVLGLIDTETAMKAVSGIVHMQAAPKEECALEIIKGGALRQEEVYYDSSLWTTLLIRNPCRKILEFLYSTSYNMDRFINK

IC50	SMILES
< 100 nM	CC(C)C(CC(=O)N1CCCC2CCCCC21)c1c[nH]c2ccccc12 (single isomer, unassigned) [Example 117, 3-(1H-indol-3-yl)-4-methyl-1-(octahydroquinolin-1(2H)-yl)pentan-1-one]
< 100 nM	CC(C)C(CC(=O)N1CCCC2CCCCC21)c1c[nH]c2ccccc12 (single isomer, unassigned) [Example 118, 3-(1H-indol-3-yl)-4-methyl-1-(octahydroquinolin-1(2H)-yl)pentan-1-one]
< 100 nM	CC(CC(=O)N1CCCC2CCCCC21)c1c[nH]c2ccccc12 (single isomer, unassigned) [Example 119, 3-(1H-indol-3-yl)-1-(octahydroquinolin-1(2H)-yl)butan-1-one]
< 100 nM	CC(CC(=O)N1CCCC2CCCCC21)c1c[nH]c2ccccc12 (single isomer, unassigned) [Example 120, 3-(1H-indol-3-yl)-1-(octahydroquinolin-1(2H)-yl)butan-1-one]
< 100 nM	CC(CC(=O)N1CCCC2CCCCC21)c1c[nH]c2cccc(F)c12 (single isomer, unassigned) [Example 122, 3-(4-fluoro-1H-indol-3-yl)-1-(octahydroquinolin-1(2H)-yl)butan-1-one]
< 100 nM	CC(CC(=O)N1CCCC2CCCCC21)c1c[nH]c2cccc(F)c12 (single isomer, unassigned) [Example 123, 3-(4-fluoro-1H-indol-3-yl)-1-(octahydroquinolin-1(2H)-yl)butan-1-one]
100 to 150 nM	CC(CC(=O)N1CCCC2CCCCC21)c1c[nH]c2ccccc12 (single isomer, unassigned) [Example 124, 3-(1H-indol-3-yl)-1-(octahydroquinolin-1(2H)-yl)butan-1-one]
< 100 nM	CC(CC(=O)N1CCCC2CCCCC21)c1c[nH]c2ccccc12 (single isomer, unassigned) [Example 125, 3-(1H-indol-3-yl)-1-(octahydroquinolin-1(2H)-yl)butan-1-one]
100 to 150 nM	CC(CC(=O)N1CCOC2CCCCC21)c1c[nH]c2cccc(F)c12 (single isomer, unassigned) [Example 137, 3-(4-fluoro-1H-indol-3-yl)-1-(octahydro-4H-1,4-benzoxazin-4-yl)butan-1-one]
150 to 200 nM	CC(CC(=O)N1CCOC2CCCCC21)c1c[nH]c2cccc(F)c12 (single isomer, unassigned) [Example 138, 3-(4-fluoro-1H-indol-3-yl)-1-(octahydro-4H-1,4-benzoxazin-4-yl)butan-1-one]
100 to 150 nM	CC(CC(=O)N1CCO[C@H]2CCCCC21)c1c[nH]c2cccc(F)c12 (single isomer, unassigned) [Example 139, 3-(4-fluoro-1H-indol-3-yl)-1-[cis-(4a,8a)-octahydro-4H-1,4-benzoxazin-4-yl]butan-1-one]
< 100 nM	CC(CC(=O)N1CCO[C@H]2CCCCC21)c1c[nH]c2cccc(F)c12 (single isomer, unassigned) [Example 140, 3-(4-fluoro-1H-indol-3-yl)-1-[cis-(4a,8a)-octahydro-4H-1,4-benzoxazin-4-yl]butan-1-one]
> 250 nM	CC(CC(=O)N1CCCC2CCCCC21)c1c[nH]c2ncccc12 (single isomer, unassigned) [Example 144, 1-(octahydroquinolin-1(2H)-yl)-3-(1H-pyrrolo[2,3-b]pyridin-3-yl)butan-1-one]
< 100 nM	CC(CC(=O)N1CCCC2CCCCC21)c1c[nH]c2ncccc12 (single isomer, unassigned) [Example 145, 1-(octahydroquinolin-1(2H)-yl)-3-(1H-pyrrolo[2,3-b]pyridin-3-yl)butan-1-one]
< 100 nM	O=C(O)C1CCN(C(=O)CC(c2ccccc2)c2c[nH]c3cc(F)ccc23)C2CCCCC12 (single isomer, unassigned) [Example 159, 1-[3-(6-fluoro-1H-indol-3-yl)-3-phenylpropanoyl]decahydroquinoline-4-carboxylic acid]
> 250 nM	O=C(O)C1CCN(C(=O)CC(c2ccccc2)c2c[nH]c3cc(F)ccc23)C2CCCCC12 (single isomer, unassigned) [Example 160, 1-[3-(6-fluoro-1H-indol-3-yl)-3-phenylpropanoyl]decahydroquinoline-4-carboxylic acid]
< 100 nM	O=C(O)C1CCN(C(=O)CC(c2ccccc2)c2c[nH]c3cccc(F)c23)C2CCCCC12 (single isomer, unassigned) [Example 161, 1-[3-(4-fluoro-1H-indol-3-yl)-3-phenylpropanoyl]decahydroquinoline-4-carboxylic acid]
> 250 nM	O=C(O)C1CCN(C(=O)CC(c2ccccc2)c2c[nH]c3cccc(F)c23)C2CCCCC12 (single isomer, unassigned) [Example 162, 1-[3-(4-fluoro-1H-indol-3-yl)-3-phenylpropanoyl]decahydroquinoline-4-carboxylic acid]
150 to 200 nM	CC(C)C(CC(=O)N1CCC(C(=O)O)C2CCCCC21)c1c[nH]c2cc(F)ccc12 (single isomer, unassigned) [Example 177, 1-[3-(6-fluoro-1H-indol-3-yl)-4-methylpentanoyl]decahydroquinoline-4-carboxylic acid]

IC50	SMILES
> 250 nM	CC(C)C(CC(=O)N1CCC(C(=O)O)C2CCCCC21)c1c[nH]c2cc(F)ccc12 (single isomer, unassigned) [Example 178, 1-[3-(6-fluoro-1H-indol-3-yl)-4-methylpentanoyl]decahydroquinoline-4-carboxylic acid]
> 250 nM	O=C(O)C1CCN(C(=O)CC(c2ccccc2)n2nnc3ccccc32)C2CCCCC12 (single isomer, unassigned) [Example 181, 1-[3-(1H-benzotriazol-1-yl)-3-phenylpropanoyl]decahydroquinoline-4-carboxylic acid]
> 250 nM	O=C(O)C1CCN(C(=O)CC(c2ccccc2)n2nnc3ccccc32)C2CCCCC12 (single isomer, unassigned) [Example 182, 1-[3-(1H-benzotriazol-1-yl)-3-phenylpropanoyl]decahydroquinoline-4-carboxylic acid]
< 100 nM	CC(CC(=O)N1CCCC2CCCCC21)c1c[nH]c2ccccc12 (centres unmarked) [Compound 1, 3-(1H-indol-3-yl)-1-(octahydroquinolin-1(2H)-yl)butan-1-one]
> 250 nM	Cn1cc(C(C)(C)C(=O)N2CCCC3CCCCC32)c2ccccc21 (centres unmarked) [Compound 2, 2-methyl-2-(1-methyl-1H-indol-3-yl)-1-(octahydroquinolin-1(2H)-yl)propan-1-one]
150 to 200 nM	Cc1ccc2[nH]cc(CCC(=O)N3CCCC4CCCCC43)c2c1 (centres unmarked) [Compound 3, 3-(5-methyl-1H-indol-3-yl)-1-(octahydroquinolin-1(2H)-yl)propan-1-one]
100 to 150 nM	O=C(CCc1c[nH]c2ccc(F)cc12)N1CCCC2CCCCC21 (centres unmarked) [Compound 4, 3-(5-fluoro-1H-indol-3-yl)-1-(octahydroquinolin-1(2H)-yl)propan-1-one]
< 100 nM	O=C(CSc1c[nH]c2ccccc12)N1CCCC2CCCCC21 (centres unmarked) [Compound 5, 2-(1H-indol-3-ylsulfanyl)-1-(octahydroquinolin-1(2H)-yl)ethanone]
200 to 250 nM	O=C(CCc1c[nH]c2ccc(Cl)cc12)N1CCCC2CCCCC21 (centres unmarked) [Compound 6, 3-(5-chloro-1H-indol-3-yl)-1-(octahydroquinolin-1(2H)-yl)propan-1-one]
> 250 nM	COc1ccc2[nH]cc(CCC(=O)N3CCCC4CCCCC43)c2c1 (centres unmarked) [Compound 7, 3-(5-methoxy-1 fi-indol-3-yl)-1-(octahydroquinolin-1 (2H)-yl)propan-1-one]
100 to 150 nM	O=C(/C=C/c1c[nH]c2ccccc12)N1CCCC2CCCCC21 (centres unmarked) [Compound 8, (2E)-3-(1H-indol-3-yl)-1-(octahydroquinolin-1(2H)-yl)prop-2-en-1-one]
200 to 250 nM	O=C(Cc1c[nH]c2ccccc12)N1CCCC2CCCCC21 (centres unmarked) [Compound 9, 2-(1H-indol-3-yl)-1-(octahydroquinolin-1(2H)-yl)ethanone]
100 to 150 nM	O=C(Cc1c[nH]c2ccc(F)cc12)N1CCCC2CCCCC21 (centres unmarked) [Compound 10, 2-(5-fluoro-1H-indol-3-yl)-1-(octahydroquinolin-1(2H)-yl)ethanone]
100 to 150 nM	O=C(CCCc1c[nH]c2ccccc12)N1CCCC2CCCCC21 (centres unmarked) [Compound 11, 4-(1H-indol-3-yl)-1-(octahydroquinolin-1(2H)-yl)butan-1-one]
> 250 nM	CC1CCN(C(=O)CCc2c[nH]c3ccccc23)C2CCCCC12 (centres unmarked) [Compound 12, 3-(1H-indol-3-yl)-1-(4-methyloctahydroquinolin-1(2H)-yl)propan-1-one]
< 100 nM	Cn1cc(CCC(=O)N2CCCC3CCCCC32)c2ccccc21 (centres unmarked) [Compound 13, 3-(1-methyl-1H-indol-3-yl)-1-(octahydroquinolin-1(2H)-yl)propan-1-one]
> 250 nM	O=C(CCc1cc2ccccc2[nH]1)N1CCCC2CCCCC21 (centres unmarked) [Compound 14, 3-(1H-indol-2-yl)-1-(octahydroquinolin-1(2H)-yl)propan-1-one]
100 to 150 nM	O=C(CCc1c[nH]c2ccc(O)cc12)N1CCCC2CCCCC21 (centres unmarked) [Compound 15, 3-(5-hydroxy-1H-indol-3-yl)-1-(octahydroquinolin-1(2H)-yl)propan-1-one]
150 to 200 nM	Cc1[nH]c2ccc(F)cc2c1CCC(=O)N1CCCC2CCCCC21 (centres unmarked) [Compound 16, 3-(5-fluoro-2-methyl-1H-indol-3-yl)-1-(octahydroquinolin-1(2H)-yl)propan-1-one]
